In patent US6515002B2, “Compounds and compositions for treating C1s-mediated diseases and conditions” (3-Dimensional Pharmaceuticals, Inc., priority 1999, dated 2003):

Target: T1, C1s (Homo sapiens, UniProt P09871)
T1 construct: purchased Enzyme Research, South Bend, Ind
T1 sequence (P09871 438-688 limits assumed): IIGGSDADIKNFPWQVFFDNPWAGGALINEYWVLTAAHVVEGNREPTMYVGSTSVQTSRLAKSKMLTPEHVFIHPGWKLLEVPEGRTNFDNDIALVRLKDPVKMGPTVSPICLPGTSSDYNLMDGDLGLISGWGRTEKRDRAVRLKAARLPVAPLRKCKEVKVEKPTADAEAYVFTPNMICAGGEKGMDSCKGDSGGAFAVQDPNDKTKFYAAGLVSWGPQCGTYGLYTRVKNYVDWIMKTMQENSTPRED
T1 sequence (P09871 16-437 partner limits assumed): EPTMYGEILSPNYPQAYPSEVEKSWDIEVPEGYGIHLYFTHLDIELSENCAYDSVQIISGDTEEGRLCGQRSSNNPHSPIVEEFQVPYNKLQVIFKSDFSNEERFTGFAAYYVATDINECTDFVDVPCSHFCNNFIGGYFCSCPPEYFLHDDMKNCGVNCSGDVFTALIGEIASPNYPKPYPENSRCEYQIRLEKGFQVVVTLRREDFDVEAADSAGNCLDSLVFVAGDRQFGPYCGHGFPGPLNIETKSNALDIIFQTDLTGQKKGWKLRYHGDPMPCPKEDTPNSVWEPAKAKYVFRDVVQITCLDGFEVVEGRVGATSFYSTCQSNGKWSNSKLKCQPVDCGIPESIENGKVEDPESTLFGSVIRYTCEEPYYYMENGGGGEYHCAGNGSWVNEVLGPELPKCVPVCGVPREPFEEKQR
Test: In vitro Inhibition of C1s (Ki determination, Z-Gly-Arg-5-Bzl/DTNB hydrolysis)
Format: biochemical
Conditions: purified activated C1s 7.3 nM, substrate Z-Gly-Arg-5-Bzl 45 μM, DTNB 200 μM, pH 7.5, 37° C.
Protocol: Reagents: All buffer salts were obtained from Sigma Chemical Company (St. Louis, Mo.), and were of the highest purity available.
Ki Determinations: All assays are based on the ability of the test compound to inhibit the Cis catalyzed hydrolysis of the substrate Z-Gly-Arg-5-Bzl via an intermediate reaction with 5,5′-dithio-bis(2-nitrobenzoic acid) (DTNB). [Complement C1s is available commercially from Enzyme Research, South Bend, Ind.] In a typical Ki determination, substrate is prepared in DMSO, and diluted into an assay buffer consisting of 50 mM HEPES, 200 mM NaCl, pH 7.5. […] In general, substrate concentrations are lower than the experimentally determined value for Km. […]
In a typical Ki determination, into each well of a 96-well plate is pipetted 280 μL of substrate solution, 10 μL of test compound solution, and the plate allowed to thermally equilibrate at 37° C. for 15 minutes. Reactions were initiated by the addition of a 10 μL aliquot of the enzyme and the absorbance increase at 405 nm is recorded for 5 minutes in a Molecular Devices plate reader. […] The ratio of the velocity (rate of change in absorbance as a function of time) for a sample containing no test compound is divided by the velocity of a sample containing test compound, and is plotted as a function of test compound concentration. The data are fit to a linear regression, and the value of the slope of the line calculated. […]

**Q.** With “4-[4-(3-{[(2,4-Difluorophenyl)sulfonyl]amino}phenyl)(1,3-thiazol-2-yl)]-5-methylthiophene-2-carboxamidine [Example 290]” as the substance, how does the Ki read?
**A.** 0.03 µM
